Laboratory results published in patent US4877803A, “Bis-dioxopiperazine derivatives and pharmaceutical compositions containing the same” (Zenyaku Kogyo Kabushiki Kaisha, priority 1985, dated 1989).

Experiments:
[1] = system: P388 lymphocytic leukemia cells; assay: Growth inhibition of tumor cells in vitro; format: cell-based; conditions: Mus musculus, 48 hours at 37° C., read-out: IC50 (50% inhibitory concentration of cell growth)
Experimental: (I) Growth Inhibition of Tumor Cells in Vitro:
Tumor cells were collected aseptically with capillary tube from ascites in CDF1 male mice transplanted intraperitoneally with 1×10^6 cells of P388 lymphocytic leukemia 5 days Before. Cell suspension was prepared at 5×10^4 cells/0.5 ml in a RPMI1640 medium supplemented with 10% fetal calf serum, Kanamycin (0.1 mg/ml) and 2-hydroxyethyldisulfide (0.01 mm). Each sample was dissolved or suspended in the medium at a concentration of 1×10^-1 -1×10^-5 mM/ml.
A test tube with Molton stopper loosely involving 0.5 ml each of the cell suspension and the sample suspension was kept for 48 hours at 37° C. in an incubator supplied with air containing 5% carbon dioxide. Then, after addition of 4 ml of 0.25% trypsin solution, the tube was shaken for 5 minutes at 37° C. The cells harvested therefrom was counted by using of a Coulter Counter and the inhibition of cell growth was calculated by the following formula: [formula] T: number of cells in the culture containing test compound. C: number of cells in the culture of control
50% Inhibitory concentration of cell growth (IC50) was calculated based on the inhibition in various concentrations of test compound and is shown in Table I.

[2] = system: P388 lymphocytic leukemia; assay: Increase in life span on tumor-transplanted mouse (P388); format: in vivo, mouse (CDF1); conditions: intraperitoneal, 1 day after transplantation and on 5th day
Experimental: (II) Increase in Life Span on Tumor-transplanted Mouse: The treated group to which the compound of the present invention was administered consisted of seven mice, while the control group consisted of ten mice. Six weeks old male mice (CDF1, 25±2 g of body weight) were employed as host animals.
Tumor cells (1.0×10^6) of P388 lymphocytic leukemia were transplanted intraperitoneally into each mouse. The treatment was effected one day after the transplantation and on 5th day by administering prescribed dose of each test compound intraperitoneally to the mice.
Antitumor activity of the test compound was evaluated by the rate of increase in life span (ILS) which was calculated with the following formula. [formula] T': median survival time of treated mice C': median survival time of control mice

[3] = Acute toxicity test in mice; conditions: mouse, in vivo, ip; male ICR mice, intraperitoneal, observed for 14 days, Litchfield-Wilcoxon method
Experimental: The acute toxicity of the compounds of the present invention was examined by the following test.
The test group to which the compound of the present invention was administered consisted of ten mice. Five weeks old male mice (ICR, 25±2 g of body weight) were employed as test animals.

| SMILES | IC50 [1] [nM] | ILS (rate of increase in life span) ([2]; daily dose 3.0 mg/kg) [%] | also measured |
| --- | --- | --- | --- |
| C[C@H]([C@H](C)N1CC(=O)N(CN2CCSCC2)C(=O)C1)N1CC(=O)N(CN2CCSCC2)C(=O)C1 [(2), meso-2,3-bis(4-thiomorpholinomethyl-3,5-dioxopiperazin-1-yl)butane] | 230 | – | ILS (rate of increase in life span) ([2]; daily dose 1.8 mg/kg): > 194% |
| C[C@H]([C@H](C)N1CC(=O)N(CN2CCOCC2)C(=O)C1)N1CC(=O)N(CN2CCOCC2)C(=O)C1 [(1), meso-2,3-bis(4-morpholinomethyl-3,5-dioxopiperazin-1-yl)butane] | 61 | 165 | LD50 at 336 h [3]: 10.7 mg/kg |
| O=C1CN(CCN2CC(=O)N(CN3CCOCC3)C(=O)C2)CC(=O)N1CN1CCOCC1 [(A), 1,2-bis(4-morpholinomethyl-3,5-dioxopiperazin-1-yl)ethane] | 2400 | 2 | ILS (rate of increase in life span) ([2]; daily dose 100 mg/kg (adequate dose)): 60% |
| C[C@H]([C@H](C)N1CC(=O)N(CN2CCN(c3ccccc3)CC2)C(=O)C1)N1CC(=O)N(CN2CCN(c3ccccc3)CC2)C(=O)C1 [(3), meso-2,3-bis[4-(N-phenylpiperazinomethyl)-3,5-dioxopiperazin-1-yl]butane] | 22 | – | ILS (rate of increase in life span) ([2]; daily dose 3.4 mg/kg): 78% |
| CC(CN1CC(=O)N(CN2CCOCC2)C(=O)C1)N1CC(=O)N(CN2CCOCC2)C(=O)C1 (racemic) [(B), dl-1,2-bis(4-morpholinomethyl-3,5-dioxopiperazin-1-yl)propane] | 1600 | 1 | ILS (rate of increase in life span) ([2]; daily dose 200 mg/kg (adequate dose)): 47% |
| CC1CC(C)CN(CN2C(=O)CN([C@H](C)[C@H](C)N3CC(=O)N(CN4CC(C)CC(C)C4)C(=O)C3)CC2=O)C1 (stereo partly drawn) [(5), meso-2,3-bis[4-(3,5-dimethylpiperidinomethyl)-3,5-dioxopiperazin-1-yl]butane] | 12 | – | – |
| C[C@H]([C@H](C)N1CC(=O)N(CN2CCCCC2)C(=O)C1)N1CC(=O)N(CN2CCCCC2)C(=O)C1 [(4), meso-2,3-bis(4-piperoidinomethyl-3,5-dioxopiperazin-1-yl)butane] | 47 | – | – |
